The text below walks through data of EPA's ToxValDB 9.5 (doi:10.2903/j.efsa.2006.66r).

For one series, the system named is Canidae. Particulars: subchronic; duration: 90 days; oral; Dog Other; neurology.
The test system of another series is Colinus virginianus. Particulars: reproduction developmental; duration: 21 weeks; oral; diet; reproduction.
For the next series, the system named is Daphnia magna. Particulars: chronic/long-term; duration: 21 days; reproduction.
The subject of the next series is Oncorhynchus mykiss. Particulars: chronic/long-term; duration: 21 days; mortality.
The subject of another series is Poecilus cupreus. Particulars: not reported; mortality.
In another series the test system is Rattus norvegicus. Particulars: for NOAEL: neurology.
In the next series the test system is Tagia sp. Particulars: chronic/long-term; duration: 56 days.

By NOAEL is commonly meant the highest dose or exposure tested at which no adverse effect was seen. As to `CCCSP(=O)(OCC)SCCC` [Ethoprop], the NOAEL in the series with Canidae was found to be 0.1 mg/kg-day; with Rattus norvegicus (acute, oral), 1 mg/kg-day; with Rattus norvegicus (chronic, duration: 2 years), 0.04 mg/kg-day; in the series with Rattus norvegicus (short-term, duration: 28 days, oral) it was 0.1 mg/kg-day. In addition, the NOEC is less than 0.6 mg/kg-day in the series on Colinus virginianus, 0.002 mg/L in the series with Daphnia magna, 0.064 mg/L in the series with Oncorhynchus mykiss and less than 1.67 mg/kg in the series with Tagia sp.. For the same compound, in the series with Poecilus cupreus, the LEL came out at 7000 g/ha. This compound returned an NOEL in the series with Rattus norvegicus (reproduction developmental, reproduction) of 1.3 mg/kg-day.
